Data as given in patent US11084790B2, “Insoluble complex or solvate thereof, pharmaceutical composition and use thereof” (Fruithy Holdings Limited, priority 2017, dated 2021).

Key:
[1] = Test on the solubility in a simulated body fluid; type: physicochemical; details: 0.01 M PBS pH 7.4, 37° C.
Protocol: Test on the Solubility in a Simulated Body Fluid
The concentration of the drug dissolved in the PBS buffered solution was determined with an HPLC-a method.

[2] = Test on the solubility in media at different pH; type: physicochemical
Protocol: Test on the Solubility in Media at Different pH
About 200 mg of solid powders of Preparation Example 10 and Preparation Example 15 were added in a 500 mL phosphate buffered solution at different pH values (50 mmol/L, pH 5.5, pH 6.5, pH 7.4, and pH 8.0) respectively, placed into a dissolution tester, kept at a constant temperature of 37° C., and paddle stirred at 50 rpm for 72 hours. Appropriate amounts of the suspension were taken out at 15 min, 30 min, 45 min, 1 h, 2 h, 4 h, 6 h, 8 h, 24 h, 32 h, 48 h, and 72 h respectively, and centrifuged immediately (15000 rpm, 5 min). The supernatant was diluted with methanol by a factor of two. The concentration of the drug dissolved in the PB buffer solution was determined with an HPLC-b method.

[3] = phosphate buffer pH 5.5, 37° C., 0.25 h
[4] = phosphate buffer pH 5.5, 37° C., 0.5 h
[5] = phosphate buffer pH 5.5, 37° C., 0.75 h
[6] = phosphate buffer pH 5.5, 37° C., 1 h
[7] = phosphate buffer pH 5.5, 37° C., 2 h
[8] = phosphate buffer pH 5.5, 37° C., 4 h
[9] = phosphate buffer pH 5.5, 37° C., 6 h
[10] = phosphate buffer pH 5.5, 37° C., 8 h
[11] = phosphate buffer pH 5.5, 37° C., 24 h
[12] = phosphate buffer pH 5.5, 37° C., 32 h
[13] = phosphate buffer pH 5.5, 37° C., 48 h
[14] = phosphate buffer pH 5.5, 37° C., 72 h
[15] = phosphate buffer pH 6.5, 37° C., 0.25 h
[16] = phosphate buffer pH 6.5, 37° C., 0.5 h
[17] = phosphate buffer pH 6.5, 37° C., 0.75 h
[18] = phosphate buffer pH 6.5, 37° C., 1 h
[19] = phosphate buffer pH 6.5, 37° C., 2 h
[20] = phosphate buffer pH 6.5, 37° C., 4 h
[21] = phosphate buffer pH 6.5, 37° C., 6 h
[22] = phosphate buffer pH 6.5, 37° C., 8 h
[23] = phosphate buffer pH 6.5, 37° C., 24 h
[24] = phosphate buffer pH 6.5, 37° C., 32 h
[25] = phosphate buffer pH 6.5, 37° C., 48 h
[26] = phosphate buffer pH 6.5, 37° C., 72 h
[27] = phosphate buffer pH 7.4, 37° C., 0.25 h
[28] = phosphate buffer pH 7.4, 37° C., 0.5 h
[29] = phosphate buffer pH 7.4, 37° C., 0.75 h
[30] = phosphate buffer pH 7.4, 37° C., 1 h
[31] = phosphate buffer pH 7.4, 37° C., 2 h
[32] = phosphate buffer pH 7.4, 37° C., 4 h
[33] = phosphate buffer pH 7.4, 37° C., 6 h
[34] = phosphate buffer pH 7.4, 37° C., 8 h
[35] = phosphate buffer pH 7.4, 37° C., 24 h
[36] = phosphate buffer pH 7.4, 37° C., 32 h
[37] = phosphate buffer pH 7.4, 37° C., 48 h
[38] = phosphate buffer pH 7.4, 37° C., 72 h
[39] = phosphate buffer pH 8.0, 37° C., 0.25 h
[40] = phosphate buffer pH 8.0, 37° C., 0.5 h
[41] = phosphate buffer pH 8.0, 37° C., 0.75 h
[42] = phosphate buffer pH 8.0, 37° C., 1 h
[43] = phosphate buffer pH 8.0, 37° C., 2 h
[44] = phosphate buffer pH 8.0, 37° C., 4 h
[45] = phosphate buffer pH 8.0, 37° C., 6 h
[46] = phosphate buffer pH 8.0, 37° C., 8 h
[47] = phosphate buffer pH 8.0, 37° C., 24 h
[48] = phosphate buffer pH 8.0, 37° C., 32 h
[49] = phosphate buffer pH 8.0, 37° C., 48 h
[50] = phosphate buffer pH 8.0, 37° C., 72 h

Compound: CCCCN1CCCCC1C(=O)Nc1c(C)cccc1C.O=C(O)c1cc2ccccc2c(Cc2c(O)c(C(=O)O)cc3ccccc23)c1O [Preparation Example 10, mono(bupivacaine) pamoate]
- Compound concentration: Bupivacaine ([1]; 5 min): 722 µM
- Compound concentration: Pamoic acid ([1]; 5 min): 742.7 µM
- Compound concentration: Bupivacaine ([1]; 15 min): 833 µM
- Compound concentration: Pamoic acid ([1]; 15 min): 857.9 µM
- Compound concentration: Bupivacaine ([1]; 30 min): 885.9 µM
- Compound concentration: Pamoic acid ([1]; 30 min): 916.8 µM
- Compound concentration: Bupivacaine ([1]; 1 h): 938.7 µM
- Compound concentration: Pamoic acid ([1]; 1 h): 981.6 µM
- Compound concentration: Bupivacaine ([1]; 2 h): 909.7 µM
- Compound concentration: Pamoic acid ([1]; 2 h): 995.7 µM
- Compound concentration: Bupivacaine ([1]; 6 h): 83.3 µM
- Compound concentration: Pamoic acid ([1]; 6 h): 1867.3 µM
- Compound concentration: Bupivacaine ([1]; 24 h): 67 µM
- Compound concentration: Pamoic acid ([1]; 24 h): 2560.5 µM
- molar ratio of the solubility (bupivacaine to pamoic acid) ([2]; media at pH 5.5, pH 7.4 and pH 8.0, remained for 48 hours or less): around 1.0
- time for which the molar ratio of the solubility remained around 1.0 ([2]; medium at pH 6.5, decreased after a longer time): 8 h
- Molar concentration of Bupivacaine [2, 3]: 0.047 mmol/L
- Molar concentration of Pamoic acid [2, 3]: 0.046 mmol/L
- Molar concentration of Bupivacaine [2, 4]: 0.078 mmol/L
- Molar concentration of Pamoic acid [2, 4]: 0.076 mmol/L
- Molar concentration of Bupivacaine [2, 5]: 0.106 mmol/L
- Molar concentration of Pamoic acid [2, 5]: 0.103 mmol/L
- Molar concentration of Bupivacaine [2, 6]: 0.136 mmol/L
- Molar concentration of Pamoic acid [2, 6]: 0.132 mmol/L
- Molar concentration of Bupivacaine [2, 7]: 0.188 mmol/L
- Molar concentration of Pamoic acid [2, 7]: 0.182 mmol/L
- Molar concentration of Bupivacaine [2, 8]: 0.222 mmol/L
- Molar concentration of Pamoic acid [2, 8]: 0.218 mmol/L
- Molar concentration of Bupivacaine [2, 9]: 0.234 mmol/L
- Molar concentration of Pamoic acid [2, 9]: 0.232 mmol/L
- Molar concentration of Bupivacaine [2, 10]: 0.234 mmol/L
- Molar concentration of Pamoic acid [2, 10]: 0.23 mmol/L
- Molar concentration of Bupivacaine [2, 11]: 0.246 mmol/L
- Molar concentration of Pamoic acid [2, 11]: 0.244 mmol/L
- Molar concentration of Bupivacaine [2, 12]: 0.248 mmol/L
- Molar concentration of Pamoic acid [2, 12]: 0.248 mmol/L
- Molar concentration of Bupivacaine [2, 13]: 0.198 mmol/L
- Molar concentration of Pamoic acid [2, 13]: 0.236 mmol/L
- Molar concentration of Bupivacaine [2, 14]: 0.142 mmol/L
- Molar concentration of Pamoic acid [2, 14]: 0.224 mmol/L
- Molar concentration of Bupivacaine [2, 15]: 0.05 mmol/L
- Molar concentration of Pamoic acid [2, 15]: 0.053 mmol/L
- Molar concentration of Bupivacaine [2, 16]: 0.084 mmol/L
- Molar concentration of Pamoic acid [2, 16]: 0.09 mmol/L
- Molar concentration of Bupivacaine [2, 17]: 0.115 mmol/L
- Molar concentration of Pamoic acid [2, 17]: 0.124 mmol/L
- Molar concentration of Bupivacaine [2, 18]: 0.148 mmol/L
- Molar concentration of Pamoic acid [2, 18]: 0.160 mmol/L
- Molar concentration of Bupivacaine [2, 19]: 0.274 mmol/L
- Molar concentration of Pamoic acid [2, 19]: 0.296 mmol/L
- Molar concentration of Bupivacaine [2, 20]: 0.384 mmol/L
- Molar concentration of Pamoic acid [2, 20]: 0.414 mmol/L
- Molar concentration of Bupivacaine [2, 21]: 0.396 mmol/L
- Molar concentration of Pamoic acid [2, 21]: 0.424 mmol/L
- Molar concentration of Bupivacaine [2, 22]: 0.404 mmol/L
- Molar concentration of Pamoic acid [2, 22]: 0.448 mmol/L
- Molar concentration of Bupivacaine [2, 23]: 0.186 mmol/L
- Molar concentration of Pamoic acid [2, 23]: 0.440 mmol/L
- Molar concentration of Bupivacaine [2, 24]: 0.15 mmol/L
- Molar concentration of Pamoic acid [2, 24]: 0.426 mmol/L
- Molar concentration of Bupivacaine [2, 25]: 0.14 mmol/L
- Molar concentration of Pamoic acid [2, 25]: 0.428 mmol/L
- Molar concentration of Bupivacaine [2, 26]: 0.128 mmol/L
- Molar concentration of Pamoic acid [2, 26]: 0.416 mmol/L
- Molar concentration of Bupivacaine [2, 27]: 0.0555 mmol/L
- Molar concentration of Pamoic acid [2, 27]: 0.0605 mmol/L
- Molar concentration of Bupivacaine [2, 28]: 0.095 mmol/L
- Molar concentration of Pamoic acid [2, 28]: 0.105 mmol/L
- Molar concentration of Bupivacaine [2, 29]: 0.1315 mmol/L
- Molar concentration of Pamoic acid [2, 29]: 0.1465 mmol/L
- Molar concentration of Bupivacaine [2, 30]: 0.170 mmol/L
- Molar concentration of Pamoic acid [2, 30]: 0.190 mmol/L
- Molar concentration of Bupivacaine [2, 31]: 0.288 mmol/L
- Molar concentration of Pamoic acid [2, 31]: 0.320 mmol/L
- Molar concentration of Bupivacaine [2, 32]: 0.386 mmol/L
- Molar concentration of Pamoic acid [2, 32]: 0.430 mmol/L
- Molar concentration of Bupivacaine [2, 33]: 0.428 mmol/L
- Molar concentration of Pamoic acid [2, 33]: 0.476 mmol/L
- Molar concentration of Bupivacaine [2, 34]: 0.440 mmol/L
- Molar concentration of Pamoic acid [2, 34]: 0.486 mmol/L
- Molar concentration of Bupivacaine [2, 35]: 0.426 mmol/L
- Molar concentration of Pamoic acid [2, 35]: 0.550 mmol/L
- Molar concentration of Bupivacaine [2, 36]: 0.402 mmol/L
- Molar concentration of Pamoic acid [2, 36]: 0.592 mmol/L
- Molar concentration of Bupivacaine [2, 37]: 0.204 mmol/L
- Molar concentration of Pamoic acid [2, 37]: 0.498 mmol/L
- Molar concentration of Bupivacaine [2, 38]: 0.166 mmol/L
- Molar concentration of Pamoic acid [2, 38]: 0.458 mmol/L
- Molar concentration of Bupivacaine [2, 39]: 0.0575 mmol/L
- Molar concentration of Pamoic acid [2, 39]: 0.063 mmol/L
- Molar concentration of Bupivacaine [2, 40]: 0.099 mmol/L
- Molar concentration of Pamoic acid [2, 40]: 0.110 mmol/L
- Molar concentration of Bupivacaine [2, 41]: 0.1375 mmol/L
- Molar concentration of Pamoic acid [2, 41]: 0.154 mmol/L
- Molar concentration of Bupivacaine [2, 42]: 0.178 mmol/L
- Molar concentration of Pamoic acid [2, 42]: 0.200 mmol/L
- Molar concentration of Bupivacaine [2, 43]: 0.308 mmol/L
- Molar concentration of Pamoic acid [2, 43]: 0.344 mmol/L
- Molar concentration of Bupivacaine [2, 44]: 0.416 mmol/L
- Molar concentration of Pamoic acid [2, 44]: 0.468 mmol/L
- Molar concentration of Bupivacaine [2, 45]: 0.494 mmol/L
- Molar concentration of Pamoic acid [2, 45]: 0.554 mmol/L
- Molar concentration of Bupivacaine [2, 46]: 0.558 mmol/L
- Molar concentration of Pamoic acid [2, 46]: 0.624 mmol/L
- Molar concentration of Bupivacaine [2, 47]: 0.610 mmol/L
- Molar concentration of Pamoic acid [2, 47]: 0.688 mmol/L
- Molar concentration of Bupivacaine [2, 48]: 0.622 mmol/L
- Molar concentration of Pamoic acid [2, 48]: 0.702 mmol/L
- Molar concentration of Bupivacaine [2, 49]: 0.592 mmol/L
- Molar concentration of Pamoic acid [2, 49]: 0.694 mmol/L
- Molar concentration of Bupivacaine [2, 50]: 0.44 mmol/L
- Molar concentration of Pamoic acid [2, 50]: 0.7 mmol/L
